The term inhibition denotes how much of the control response was suppressed.

Each structure is given as a SMILES string. Entries after “also recorded” stand apart in the source; their conditions may differ.

The text below walks through data of patent US20220380383A1, “NEUROPROTECTIVE PDI MODULATING SMALL MOLECULES AND METHODS OF USE THEREOF” (THE TRUSTEES OF COLUMBIA UNIVERSITY IN THE CITY OF NEW YORK, priority 2018, published 2022).

Series [1] concerns striatal medium spiny neurons in brain slice explants co-transfected with YFP and mHTT. Nature of the series: HD brain slice assay. Type of series: cell-based, rat. How it is done: Resonances with large chemical shifts are labeled in green. Rat coronal brain slice explants co-transfected with YFP and Tau-4R (FIG. 16B) or striatal brain slice explants co-transfected with YFP and mHTT (FIG. 16C) were treated with LC-43 or DMSO carrier-only for 3 days. The respective regions of each brain slice were then scored for numbers of healthy (FIG. 16B) pyramidal or (FIG. 16C) medium spiny neurons remaining. Data are normalized to the negative control condition set to 100% and plotted as means±SEM. In FIG. 16D, The confocal images shown are maximal z-stacks of 0.5 μm steps (˜20 images per stack). (Bottom) Reduction of neuronal redox state by LC-43. Left, Primary neurons were co-transfected with mCherry (to positively identify transfected neurons) and the genetically encoded ratiometric redox reporter roGFP2. Four days later, the culture medium was changed into an identical formulation except without conventional antioxidant additives. […]
Brain slice explants were prepared and transfected as previously described (Reinhart et al., 2011). […] Striatal medium spiny neurons (MSNs) expressing YFP were visualized under fluorescence microscopy and identified based on their location within brain slices and their characteristic morphology.

The target in series [2] is T1, human catalytic PDI A1 a domain (PDIa) (Homo sapiens, UniProt P07237).
T1 construct: made in house; host or cells: Escherichia coli BL21-Gold (DE3)
T1 sequence (P07237 18-134): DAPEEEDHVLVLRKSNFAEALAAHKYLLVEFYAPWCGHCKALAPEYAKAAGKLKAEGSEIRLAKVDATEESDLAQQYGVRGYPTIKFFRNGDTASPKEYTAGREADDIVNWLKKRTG
The series is described as follows: Isothermal titration calorimetry (ITC) binding to PDIa. (In general: In ITC the heat of successive injections is recorded.)

The next series deals with T2, 15N-labeled PDIa (Homo sapiens, UniProt P07237).
T2 construct: His6 (N, cleaved yes); made in house; host or cells: Escherichia coli BL21-Gold (DE3), M9 minimal medium with 15NH4Cl
T2 sequence (P07237 18-134): as above
The series is described as follows: 1H-15N HSQC NMR of PDIa. In kind it is binding. As to the method:
The ^1H-^15N HSQC spectra were performed on Bruker Avance III 500 Ascend (500 MHz) spectrometers at 300 K. The uniformly ^15N-labeled PDIa was dissolved at 50 μM or 100 μM in 90% H2O/10% D20 (v/v), pH 5.1. The ^1H carrier frequency was positioned at the water resonance. The ^15N carrier frequency was positioned at 115 ppm. The spectral width in the ^1H dimension was 7500 Hz and the width in ω1 (^15N) dimension was 1824.6 Hz. Suppression of water signal was accomplished using the WATERGATE sequence. Heteronuclear decoupling was accomplished using GARP decoupling scheme.

The target of the next series is T3, ROCK1 (Homo sapiens, UniProt Q13464).
T3 construct: CEREP (CRO, Safety47 panel)
T3 sequence (Q13464 whole entry): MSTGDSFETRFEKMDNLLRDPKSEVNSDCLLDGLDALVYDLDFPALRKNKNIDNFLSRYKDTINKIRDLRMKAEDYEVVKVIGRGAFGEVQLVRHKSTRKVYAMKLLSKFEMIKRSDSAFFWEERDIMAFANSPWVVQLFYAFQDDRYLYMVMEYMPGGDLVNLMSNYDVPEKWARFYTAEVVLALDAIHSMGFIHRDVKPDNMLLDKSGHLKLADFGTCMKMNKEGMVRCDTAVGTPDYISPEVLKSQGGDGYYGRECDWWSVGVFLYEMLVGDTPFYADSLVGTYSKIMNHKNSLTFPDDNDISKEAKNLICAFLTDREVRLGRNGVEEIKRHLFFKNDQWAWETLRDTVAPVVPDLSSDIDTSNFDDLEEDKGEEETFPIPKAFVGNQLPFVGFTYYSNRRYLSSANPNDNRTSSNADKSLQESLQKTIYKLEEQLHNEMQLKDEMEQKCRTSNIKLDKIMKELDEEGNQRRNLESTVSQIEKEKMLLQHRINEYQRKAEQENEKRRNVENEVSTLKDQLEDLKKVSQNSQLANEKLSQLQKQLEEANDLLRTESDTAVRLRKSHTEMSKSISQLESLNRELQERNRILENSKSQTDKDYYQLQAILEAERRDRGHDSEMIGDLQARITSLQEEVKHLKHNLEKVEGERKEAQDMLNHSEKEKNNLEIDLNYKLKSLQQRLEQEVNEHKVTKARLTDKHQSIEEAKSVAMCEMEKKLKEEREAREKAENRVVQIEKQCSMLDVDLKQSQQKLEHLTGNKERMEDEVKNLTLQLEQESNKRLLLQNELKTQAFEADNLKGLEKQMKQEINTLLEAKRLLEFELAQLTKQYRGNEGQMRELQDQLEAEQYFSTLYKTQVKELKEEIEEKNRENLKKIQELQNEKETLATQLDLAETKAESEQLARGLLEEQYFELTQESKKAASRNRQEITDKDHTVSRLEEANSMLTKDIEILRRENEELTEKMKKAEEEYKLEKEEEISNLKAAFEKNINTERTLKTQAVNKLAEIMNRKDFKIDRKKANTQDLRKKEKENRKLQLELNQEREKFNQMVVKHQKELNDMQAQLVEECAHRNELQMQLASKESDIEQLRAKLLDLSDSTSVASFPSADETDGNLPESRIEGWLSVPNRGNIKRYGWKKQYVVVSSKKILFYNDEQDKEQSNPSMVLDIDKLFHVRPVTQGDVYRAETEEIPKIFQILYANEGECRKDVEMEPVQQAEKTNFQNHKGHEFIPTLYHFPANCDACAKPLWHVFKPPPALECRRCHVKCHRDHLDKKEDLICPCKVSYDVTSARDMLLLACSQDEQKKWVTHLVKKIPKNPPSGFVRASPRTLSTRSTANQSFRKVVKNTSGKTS
Nature of the series: Safety47 panel kinase ROCK1. In kind it is biochemical. The following applies: Inhibitor mode; 3 μM. The source says:
(§1) LOC14 was also submitted for testing in CEREP's Safety47 panel. CEREP is a CRO specializing in preclinical research, discovery and development of new pharmaceutical drugs.

The subject of the next series is GABAA. The series is described as follows: Safety47 panel ion channel GABAA. The following applies: 3 μM. In kind it is cell-based, human.
Source text: as §1

For another series, the target named is T4, COX2 (Homo sapiens, UniProt P35354).
T4 construct: CEREP (CRO panel)
T4 sequence (P35354 18-604): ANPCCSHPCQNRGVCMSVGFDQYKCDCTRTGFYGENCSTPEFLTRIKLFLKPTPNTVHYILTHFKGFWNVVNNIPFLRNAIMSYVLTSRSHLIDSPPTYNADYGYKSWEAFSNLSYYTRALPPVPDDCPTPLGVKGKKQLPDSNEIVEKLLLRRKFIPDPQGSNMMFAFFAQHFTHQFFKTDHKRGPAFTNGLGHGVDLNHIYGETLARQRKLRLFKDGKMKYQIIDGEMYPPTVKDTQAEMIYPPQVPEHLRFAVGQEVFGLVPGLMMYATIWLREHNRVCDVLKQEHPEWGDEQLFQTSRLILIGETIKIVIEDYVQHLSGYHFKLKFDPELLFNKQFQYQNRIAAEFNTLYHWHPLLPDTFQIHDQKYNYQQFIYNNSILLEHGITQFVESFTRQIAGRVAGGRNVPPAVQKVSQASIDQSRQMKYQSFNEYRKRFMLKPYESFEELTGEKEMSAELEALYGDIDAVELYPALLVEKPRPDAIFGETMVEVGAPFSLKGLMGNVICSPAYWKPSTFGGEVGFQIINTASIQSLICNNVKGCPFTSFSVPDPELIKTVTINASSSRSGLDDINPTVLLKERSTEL
Nature of the series: Safety47 panel non-kinase enzyme COX2. In kind it is biochemical. The following applies: Inhibitor mode; 3 μM.
Source text: as §1

In a further series the target is T5, CAV1.2 (Homo sapiens, UniProt Q13936).
T5 construct: CEREP (CRO panel)
The series is described as follows: Safety47 panel ion channel CAV1.2. In kind it is cell-based. The settings on record: Blocker mode; 3 μM.
Source text: as §1

Series [3] addresses Transporter, Norepinephrine (NET) (Homo sapiens, UniProt P23975). The series is described as follows: Off-target panel, Norepinephrine transporter. In kind it is binding. The settings on record: Conc. 3 μM.
A further series deals with ST14A mHTTQ120 cells. The series is described as follows: Rescue of ST14A mHTTQ120 cells (39° C., serum starved, CellTiter-Glo). The following applies: 48 hours. Type of series: cell-based, rat. The source says:
Having elucidated the molecular mechanism of LOC14's binding to PDI, we next tested whether PDI modulation with LOC14 would be effective in neurodegenerative disease models. First, we evaluated LOC14's neuroprotection in rat neuron-like PC12 cells stably transfected with an inducible plasmid for truncated mutant huntingtin protein (mHTT^Q103). […] We next evaluated the activity of LOC14 in cells that more closely represent the medium-size spiny neurons affected in Huntington Disease patients. We used rat embryonic day 14 striatal neuronal cells (ST14A) immortalized by transduction of temperature-sensitive SV40 large T antigen (Cattaneo and Conti, 1998; Ehrlich et al. 2001; Rigamonti et al. 2000). Under serum deprivation and at 39° C., where large T antigen is degraded, ST14A cells undergo cell death within 48-72 hours. This death was rescued by treatment with LOC14 (FIG. 13B).

A further series deals with T6, CYP1A2 (Homo sapiens, UniProt P05177).
T6 construct: Cyprotex (CRO)
T6 sequence (P05177 whole entry): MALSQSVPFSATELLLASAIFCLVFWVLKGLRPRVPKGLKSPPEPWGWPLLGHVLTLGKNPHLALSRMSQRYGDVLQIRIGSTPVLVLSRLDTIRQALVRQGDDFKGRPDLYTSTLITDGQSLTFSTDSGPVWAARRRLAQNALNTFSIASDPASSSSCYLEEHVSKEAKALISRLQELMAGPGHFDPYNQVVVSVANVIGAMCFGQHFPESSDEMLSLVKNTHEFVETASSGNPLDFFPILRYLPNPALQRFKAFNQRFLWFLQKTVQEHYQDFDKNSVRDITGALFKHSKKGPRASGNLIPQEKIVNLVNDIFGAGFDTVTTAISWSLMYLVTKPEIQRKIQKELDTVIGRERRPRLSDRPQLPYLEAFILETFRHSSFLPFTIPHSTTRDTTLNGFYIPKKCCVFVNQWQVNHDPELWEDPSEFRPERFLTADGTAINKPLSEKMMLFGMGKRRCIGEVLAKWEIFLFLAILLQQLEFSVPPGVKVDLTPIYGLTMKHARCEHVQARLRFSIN
The series is described as follows: CYP450 inhibition, CYP1A2. Type of series: in vitro ADME. The settings on record: high concentration of 30 μM.

For series [4] the following is noted: cited from earlier work.

Chain of Transporter, Norepinephrine (NET) (P23975 whole entry): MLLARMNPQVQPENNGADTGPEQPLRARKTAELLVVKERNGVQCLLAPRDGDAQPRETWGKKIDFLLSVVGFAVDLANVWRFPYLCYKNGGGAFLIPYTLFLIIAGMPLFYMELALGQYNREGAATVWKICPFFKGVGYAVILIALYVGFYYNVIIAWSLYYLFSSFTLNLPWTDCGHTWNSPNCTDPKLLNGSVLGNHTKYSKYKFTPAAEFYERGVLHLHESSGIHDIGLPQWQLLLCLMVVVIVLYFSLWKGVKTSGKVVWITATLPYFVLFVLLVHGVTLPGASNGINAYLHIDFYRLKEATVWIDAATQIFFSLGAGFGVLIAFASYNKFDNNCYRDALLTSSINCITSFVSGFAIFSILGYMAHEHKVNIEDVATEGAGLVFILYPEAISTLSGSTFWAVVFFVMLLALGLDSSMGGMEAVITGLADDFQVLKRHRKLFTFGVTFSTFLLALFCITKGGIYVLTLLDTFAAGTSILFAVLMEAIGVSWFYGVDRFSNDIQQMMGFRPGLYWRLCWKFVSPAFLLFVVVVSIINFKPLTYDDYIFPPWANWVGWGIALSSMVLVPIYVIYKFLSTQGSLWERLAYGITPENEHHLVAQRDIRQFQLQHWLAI

For `O=C(C1CC1)N1CCN(Cn2sc3c(F)cccc3c2=O)CC1` [LC-43], the “rescue of medium spiny neurons in HD brain slice” value in series [1] (3 days treatment) is given as “dose-dependent rescue; also recorded: robust neuroprotection”. Further, the “concentration that provided peak rescue” value in series [1] (HD brain slice assay) came to 10 µM. Further, the “binding to PDI by ITC” value in series [2] is reported as “showed no binding to the protein by ITC”. Further, the “ITC KD” value in series [2] (N/A = not active) is on record as “KD = N/A irreversible or not active”. For the same compound, the “chemical shift changes in PDIa (1H-15N HSQC)” value on 15N-labeled PDIa is “same chemical shift changes in the active site as induced by LOC14”.
For `O=C(C1CC1)N1CCN(Cn2sc3ccccc3c2=O)CC1` [LOC14], the Average amounted to 13.5 at ROCK1; 5.1 with GABAA (Blocker mode); 0.0 in the series with GABAA (Opener mode); 2.8 on COX2; 1.2 at CAV1.2. Besides, in series [3], testing at 3 µM gave an inhibition of 24%. The EC100 in the series with ST14A mHTTQ120 cells was determined as 6 nM. The “inhibition of CYP1A2” value at CYP1A2 is listed as “inhibits”. In addition, in series [4] (in mice), the tolerated dose is given as 20 mg/kg. Moreover, the oral bioavailability result in [4] (mouse, in vivo, po) is “orally bioavailable”. Further, in [4] (mouse, in vivo), the blood-brain-barrier penetration result is listed as “blood-brain-barrier penetrant”. Also, the “half-life in the brain” value in series [4] (via oral gavage) is 2.2 h.
